Experimental data published in patent publication EP4527828A1, “BIPHENYL COMPOUND, PHARMACEUTICAL COMPOSITION, METHOD FOR PREPARING SAME, AND USE THEREOF” (Longivitron (Suzhou) Biotechnology Co., Ltd, priority 2022, dated 2023).
Where two headings read alike, the source gives them in different places.

What was measured:
mouse melanoma B16F10 [1] = assay type: in vivo; conditions: B16F10, Table 6, 100 mg/kg ip once, after 15 days of administration
Protocol: (§1) (1) 43 8-week-old female C57B/L mice were selected and divided into 5 cages. One preserved B16F10 tumor-bearing female C57L mouse was sacrificed by cervical dislocation. 75% alcohol was sprayed on the skin of the mouse in a laminar flow cabinet, and the tumor tissue of the tumor-bearing mouse was separated by sterilized surgical instruments and cut into a sterilized 5 mL homogenizer with ophthalmic scissors. The tumor tissue was slowly milled on ice to form a tumor fluid. The number of cells was 6.85 × 10^7 cells/mL as counted with a BioRad counting instrument. The tumor fluid was placed in an Erlenmeyer flask in an ice bath for later use. The tumor fluid was evenly aspirated using a 1 mL sterile syringe and inoculated 0.2 mL/C57/L mouse. After the inoculation was completed, the mice continued to be fed under the initial feeding conditions.
(2) Animal grouping and administration: On the second day after tumor fluid inoculation of C57B/L mice, 43 mice were randomly grouped: 10 mice in a control group, 8 mice in a Compound 4-20 mg/kg group, 8 mice in a Compound 4-30 mg/kg group, 8 mice in a Compound 4-40 mg/kg group, and 9 mice in a positive control drug cyclophosphamide CTX-100 mg/kg group. The mice were weighed and administered.
(3) Drug preparation: The corresponding amounts of the drugs were weighed according to the final concentrations of the experimental groups. The drugs of the Compound 4-20 mg/kg group and the Compound 4-30 mg/kg group were prepared with 0.25% CMCNa + Tween 80 and administered orally once a day. The drug of Compound 4-40 mg/kg was prepared with normal saline + Tween 80 and administered intraperitoneally. CTX was prepared with normal saline and administered intraperitoneally once. The mice in the control group were given 0.25% CMCNa solution orally.
(§2) (4) The animals were sacrificed, and the tumors were separated and weighed. The animals in each group were treated immediately 1 h after administration on the last day and weighed, and the tumor tissue was weighed.

mouse melanoma B16F10 [2] = assay type: in vivo; conditions: B16F10, Table 7, 100 mg/kg intraperitoneally once
Protocol: as §1, §2
Animal grouping and administration: On the second day after tumor fluid inoculation of C57B/L mice, tumor-bearing mice were randomly grouped: a control group, a Compound 8-5 mg/kg group, a Compound 8-10 mg/kg group, a Compound 8-20 mg/kg group, and a positive control drug cyclophosphamide CTX-100 mg/kg group. The animals were weighed and administered daily. The drugs to be tested were administered orally daily, and the positive control drug CTX was administered intraperitoneally once. After the experiment was completed, the body weights and tumor weights of the animals were weighed, and the tumor weight inhibition rate (%) was calculated.

[3] = system: mouse liver cancer HEPA1-6; assay type: in vivo; conditions: HEPA1-6, 100 mg/kg ip once, after 27 days of administration
Protocol: (1) 32 8-week-old female C57L mice were selected and divided into 5 cages. HEPA1-6 cells cultured with DMEM + 10% FBS in vitro were washed with PBS and digested with 0.25% trypsin for 3 min. The digestion was terminated with a serum-containing medium, the cells were centrifuged at 2500 rpm for 5 min, the supernatant was discarded, and the cells were resuspended with an appropriate amount of PBS twice. The number of cells was 1.14 × 10^7 cells/mL as counted with a BioRad counting instrument. The cell suspension was placed in an Erlenmeyer flask in an ice bath for later use. The tumor fluid was evenly aspirated using a 1 mL sterile syringe and inoculated 0.2 mL/mouse. After the inoculation was completed, the mice continued to be fed under the initial feeding conditions.
(2) Animal grouping: On the second day after tumor fluid inoculation of C57B/L mice, 32 mice were randomly grouped: 8 mice in a control group, 6 mice in a Compound 4-5 mg/kg group, 6 mice in a Compound 4-10 mg/kg group, 6 mice in a Compound 4-20 mg/kg group, and 6 mice in a positive control drug cyclophosphamide (CTX)-100 mg/kg group. The drug test groups were given the drugs to be tested orally once a day, and the positive control drug CTX was injected intraperitoneally once. The mice were weighed and administered daily.
(3) Drug preparation: The corresponding amounts of the drugs to be tested were weighed according to the final concentrations of the experimental groups. The drugs of the Compound 4-5 mg/kg group, the Compound 4-10 mg/kg group, and the Compound 4-20 mg/kg group were prepared with 5% CMCNa + Tween 80, and CTX was prepared with normal saline. The mice in the control group were given 5% CMCNa solution orally. The dosages were as follows: 0.4 mL/20 g body weight of the animal for intragastric administration, and 0.2 mL/20 g body weight of the animal for intraperitoneal injection.
(4) The animals were sacrificed, and the tumors were separated and weighed. The animals in each group were treated immediately 1 h after administration on the last day and weighed, and the tumor tissue was separated and weighed.

LAG3/MHCII = target: T1, LAG3/MHCII (Homo sapiens, UniProt P18627); assay: HTRF binding inhibition of LAG3 and its ligand MHCII; conditions: binding inhibition LAG3/MHCII
T1 sequence (P18627 23-450 limits assumed): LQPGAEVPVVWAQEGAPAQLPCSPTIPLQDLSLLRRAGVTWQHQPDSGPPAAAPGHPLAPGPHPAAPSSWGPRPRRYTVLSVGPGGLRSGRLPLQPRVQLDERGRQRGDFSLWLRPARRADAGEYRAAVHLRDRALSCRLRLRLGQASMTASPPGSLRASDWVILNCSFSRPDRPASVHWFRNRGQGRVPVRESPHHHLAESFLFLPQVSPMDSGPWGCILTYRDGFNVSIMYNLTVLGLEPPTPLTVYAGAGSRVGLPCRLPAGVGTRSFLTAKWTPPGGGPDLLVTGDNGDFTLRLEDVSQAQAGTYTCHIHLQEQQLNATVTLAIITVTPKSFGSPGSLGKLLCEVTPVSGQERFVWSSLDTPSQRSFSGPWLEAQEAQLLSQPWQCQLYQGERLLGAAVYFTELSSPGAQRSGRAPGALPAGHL
Protocol: HTRF (Homogeneous time-resolved fluorescence) is based on two techniques, fluorescence resonance energy transfer (FRET) and time-resolved fluorescence (TRF). The detection was carried out using a 384-well plate. 2 µL of a compound to be tested with an appropriate concentration was collected, 4 µL of Tag1-LAG3 protein (with a final concentration of 10 nmol·L^-1) was added, 4 µL of Tag2-MHCII (with a final concentration of 20 nmol·L^-1) was added, and the plate was incubated at room temperature for 15 min. 10 µL of Anti-Tag1-Tb working solution (prepared by adding 25 µL of Anti-Tag1-Tab mother solution to 2475 µL of dilution buffer) was added, 10 µL of Anti-Tag2-XL665 working solution (prepared by adding 25 µL of Tag2-XL665 mother solution to 2475 µL of dilution buffer) was added, and the plate was sealed with a film and incubated at room temperature for 1 h. The detection was carried out using a Perkin Elma Envision instrument.

LAG3/FGL1 = target: T2, LAG3/FGL1 (Homo sapiens, UniProt P18627); assay: HTRF binding inhibition of LAG3 and its ligand FGL1; conditions: binding inhibition LAG3/FGL1; read-out: IC50
T2 sequence (P18627 23-450 limits assumed): T1 sequence (P18627 23-450 limits assumed)
Protocol: Reagent preparation: ① Tag1-LAG3 protein: a protein solution with a concentration of 50 nM (20 µL with a final system concentration of 10 nM) was prepared using a diluent. ② Tag2-FGL1 protein: a protein solution with a concentration of 100 nM (20 µL with a final system concentration of 20 nM) was prepared using a diluent. ③ Anti-Tag1-Tb: a 100× stock solution was diluted with a detection buffer to a 1 × stock solution. ④ Anti-Tag2-XL665: a 100× stock solution was diluted with a detection buffer to a 1 × stock solution.
Assay step: (1) 2 µL of compound solution (with a concentration to be measured of 10×) was added to a 384-well opaque plate having a white background, 4 µL of Tag1-LAG3 protein and 4 µL of Tag2-FGL1 protein were added, respectively, and the plate was incubated at room temperature for 15 min; (2) Anti-Tag1-Tb and Anti-Tag2-XL665 were mixed at a ratio of 1:1 in advance, and 10 µL of mix solution was added to each well; (3) the plate was gently mixed, sealed, and incubated at room temperature for 1 h or overnight before detection.

SMILES | Inhibition rate (mouse melanoma B16F10 [1]) | Tumor weight (mouse melanoma B16F10 [1]) | Inhibition rate (mouse melanoma B16F10 [2]) | Tumor weight (mouse melanoma B16F10 [2]) | Inhibition rate [3] | Tumor weight [3] | IC50 (LAG3/MHCII) | IC50 (LAG3/FGL1)
O=P1(N(CCCl)CCCl)NCCCO1 (centres unmarked) [CTX, cyclophosphamide, reference compound] | 61.20% | 1.128 ± 0.394 g | 82.93% | 0.30 ± 0.10 g | -18.65% | 0.804 ± 0.459 g | – | –
CCCCCCOc1ccc(C(=O)NCCCCNC(=O)C(F)(F)F)cc1-c1cc(C(=O)NCCCCNC(=O)C(F)(F)F)ccc1OCCCCCC [Compound 13] | – | – | – | – | – | – | 4.01 µM | 46 µM
